Experiment [1] addresses T1, G12D-mutant human KRAS (amino acid residues 1-188) (Homo sapiens, UniProt P01116, G12D).
T1 construct: G12D or G12C-mutant human KRAS (amino acid residues 1-188) with FLAG tag; made in house; host or cells: E. coli
Briefly: KRAS Binding Disruption Assay (AlphaScreen; biotinylated KRpep-2d analogue or RAF1-RBD), G12D. As to conditions: KRAS G12D; geometric mean; read-out: KRAS GMean IC50 (uM) MUTATION: G12D. The procedure, abridged:
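Mutant KRAS (5-20 nM) incubated 1 h at 25° C with test compound and 5-20 nM biotinylated KRpep-2d analogue or RAF1-RBD in 20 mM HEPES pH 7.5, 100 mM NaCl, 5 mM MgCl2, 0.01% Tween-20, 0.01% BSA.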

The target of experiment [2] is T2, G12V-mutant human KRAS (amino acid residues 1-188) (Homo sapiens, UniProt P01116, G12V).
T2 construct: G12V-mutant human KRAS (amino acid residues 1-188) with FLAG tag was purified from E. coli; made in house; host or cells: E. coli
The experiment is described as follows: KRAS Binding Competition Assay (AlphaScreen; biotinylated KRpep-2d analogue), G12V. As to conditions: geometric mean, read-out: KRAS GMean IC50 (uM) MUTATION: G12V. Background: Alpha assays give light when donor and acceptor beads are brought close together.

The values that follow come from patent US20230081426A1, “COMPOUNDS AND METHODS FOR KRAS MODULATION AND INDICATIONS THEREFOR” (Plexxikon Inc., priority 2020, published 2023).

A word on the IC50: it is the concentration needed to halve the response being measured.

As for `CCN1CC[C@H](NC(=O)N2[C@@H]3CC[C@H]2CN(c2nc(OCC4CCCN4C)nc4c(F)c(-c5cc(O)cc6ccccc56)ccc24)C3)C1` (stereo partly drawn) [P-0418, (1R,5S)-N-((S)-1-ethylpyrrolidin-3-yl)-3-(8-fluoro-7-(3-hydroxynaphthalen-1-yl)-2-((1-methylpyrrolidin-2-yl)methoxy)quinazolin-4-yl)-3,8-diazabicyclo[3.2.1]octane-8-carboxamide], the 50% inhibitory concentration (IC50) in experiment [1] lay within 0.0001 to 10 µM; in experiment [2], 10 to 100 µM.

On to `CN1CCCC1COc1nc(N2C[C@H]3CC[C@@H](C2)N3C(=O)NC2CCN(C3CCCCC3)C2)c2ccc(-c3cc(O)cc4ccccc34)c(F)c2n1` (stereo partly drawn) [P-0419, (1R,5S)-N-(1-cyclohexylpyrrolidin-3-yl)-3-(8-fluoro-7-(3-hydroxynaphthalen-1-yl)-2-((1-methylpyrrolidin-2-yl)methoxy)quinazolin-4-yl)-3,8-diazabicyclo[3.2.1]octane-8-carboxamide], for which the half-inhibitory concentration (IC50) in experiment [1] lay in the range of 0.0001 to 10 µM; in experiment [2] it was 10 to 100 µM.

For `CONC(=O)N1[C@@H]2CC[C@H]1CN(c1nc(OCC3CCCN3C)nc3c(F)c(-c4cc(O)cc5ccccc45)ccc13)C2` (stereo partly drawn) [P-0420, (1R,5S)-3-(8-fluoro-7-(3-hydroxynaphthalen-1-yl)-2-((1-methylpyrrolidin-2-yl)methoxy)quinazolin-4-yl)-N-methoxy-3,8-diazabicyclo[3.2.1]octane-8-carboxamide], the IC50 in experiment [1] lay within 0.0001 to 10 µM; in experiment [2], 10 to 100 µM.

Turning to `CN1CCCC1COc1nc(N2C[C@H]3CC[C@@H](C2)N3C(=O)NC2CN3CCC2CC3)c2ccc(-c3cc(O)cc4ccccc34)c(F)c2n1` (stereo partly drawn) [P-0421, (1R,5S)-3-(8-fluoro-7-(3-hydroxynaphthalen-1-yl)-2-((1-methylpyrrolidin-2-yl)methoxy)quinazolin-4-yl)-N-(quinuclidin-3-yl)-3,8-diazabicyclo[3.2.1]octane-8-carboxamide], the figures for the IC50 in experiment [1] and in experiment [2] were 0.0001 to 10 µM and 10 to 100 µM, respectively.

For the compound `CN1CCCC1COc1nc(N2C[C@H]3CC[C@@H](C2)N3C(=O)NO)c2ccc(-c3cc(O)cc4ccccc34)c(F)c2n1` (stereo partly drawn) [P-0422, (1R,5S)-3-(8-fluoro-7-(3-hydroxynaphthalen-1-yl)-2-((1-methylpyrrolidin-2-yl)methoxy)quinazolin-4-yl)-N-hydroxy-3,8-diazabicyclo[3.2.1]octane-8-carboxamide], the IC50 in experiment [1] and in experiment [2] was 0.0001 to 10 µM in each case.

Regarding `CN1CCCC1COc1nc(N2C[C@H]3CC[C@@H](C2)N3C(=O)NCC(N)=O)c2ccc(-c3cc(O)cc4ccccc34)c(F)c2n1` (stereo partly drawn) [P-0423, (1R,5S)-N-(2-amino-2-oxoethyl)-3-(8-fluoro-7-(3-hydroxynaphthalen-1-yl)-2-((1-methylpyrrolidin-2-yl)methoxy)quinazolin-4-yl)-3,8-diazabicyclo[3.2.1]octane-8-carboxamide], the IC50 in experiment [1] and in experiment [2] was 0.0001 to 10 µM throughout.

Consider `CN1CCC[C@H]1COc1nc(N2C[C@H]3CC[C@@H](C2)N3C(=O)[C@@H](N)CO)c2ccc(-c3cc(O)cc4ccccc34)c(F)c2n1` [P-0424, (S)-2-amino-1-((1R,5S)-3-(8-fluoro-7-(3-hydroxynaphthalen-1-yl)-2-(((S)-1-methylpyrrolidin-2-yl)methoxy)quinazolin-4-yl)-3,8-diazabicyclo[3.2.1]octan-8-yl)-3-hydroxypropan-1-one], for which the concentration for half-maximal inhibition (IC50) in experiment [1] was in the range of 0.0001 to 10 µM; in experiment [2], 10 to 100 µM.

As to `CN1CCC[C@H]1COc1nc(N2C[C@H]3CC[C@@H](C2)N3C(=O)[C@@H]2C[C@@H](O)CN2)c2ccc(-c3cc(O)cc4ccccc34)c(F)c2n1` [P-0425, ((1R,5S)-3-(8-fluoro-7-(3-hydroxynaphthalen-1-yl)-2-(((S)-1-methylpyrrolidin-2-yl)methoxy)quinazolin-4-yl)-3,8-diazabicyclo[3.2.1]octan-8-yl)((2S,4R)-4-hydroxypyrrolidin-2-yl)methanone], the concentration for half-maximal inhibition (IC50) was 0.0001 to 10 µM in experiment [1] and 10 to 100 µM in experiment [2].

Regarding `CNCC(=O)N1[C@@H]2CC[C@H]1CN(c1nc(OC[C@@H]3CCCN3C)nc3c(F)c(-c4cc(O)cc5ccccc45)ccc13)C2` [P-0426, 1-((1R,5S)-3-(8-fluoro-7-(3-hydroxynaphthalen-1-yl)-2-(((S)-1-methylpyrrolidin-2-yl)methoxy)quinazolin-4-yl)-3,8-diazabicyclo[3.2.1]octan-8-yl)-2-(methylamino)ethan-1-one], the 50% inhibitory concentration (IC50) in experiment [1] is 0.0001 to 10 µM; in experiment [2], 10 to 100 µM.

Consider `CN1CCC[C@H]1COc1nc(N2C[C@H]3CC[C@@H](C2)N3CC(=O)N2CCC(N)CC2)c2ccc(-c3cc(O)cc4ccccc34)c(F)c2n1` [P-0427, 1-(4-aminopiperidin-1-yl)-2-((1R,5S)-3-(8-fluoro-7-(3-hydroxynaphthalen-1-yl)-2-(((S)-1-methylpyrrolidin-2-yl)methoxy)quinazolin-4-yl)-3,8-diazabicyclo[3.2.1]octan-8-yl)ethan-1-one], for which the results for the IC50 in experiment [1] and in experiment [2] were 10 to 100 µM and 100 to 1000 µM, respectively.

As to `CN1CCC[C@H]1COc1nc(N2C[C@H]3CC[C@@H](C2)N3CC(=O)N2CCOCC2)c2ccc(-c3cc(O)cc4ccccc34)c(F)c2n1` [P-0428, 2-((1R,5S)-3-(8-fluoro-7-(3-hydroxynaphthalen-1-yl)-2-(((S)-1-methylpyrrolidin-2-yl)methoxy)quinazolin-4-yl)-3,8-diazabicyclo[3.2.1]octan-8-yl)-1-morpholinoethan-1-one], the IC50 in experiment [1] lay within 0.0001 to 10 µM; in experiment [2], 100 to 1000 µM.

In the case of `CN1CCC[C@H]1COc1nc(N2C[C@H]3CC[C@@H](C2)N3C2CNC2)c2ccc(-c3cc(O)cc4ccccc34)c(F)c2n1` [P-0430, 4-(4-((1R,5S)-8-(azetidin-3-yl)-3,8-diazabicyclo[3.2.1]octan-3-yl)-8-fluoro-2-(((S)-1-methylpyrrolidin-2-yl)methoxy)quinazolin-7-yl)naphthalen-2-ol], the half-maximal inhibitory concentration (IC50) in experiment [1] lay within 10 to 100 µM; in experiment [2], 100 to 1000 µM.

Turning to `OCCc1nc(N2C[C@H]3CC[C@@H](C2)N3)c2ccc(-c3cc(O)cc4ccccc34)c(F)c2n1` [P-0431, 4-(4-((1R,5S)-3,8-diazabicyclo[3.2.1]octan-3-yl)-8-fluoro-2-(2-hydroxyethyl)quinazolin-7-yl)naphthalen-2-ol], the half-inhibitory concentration (IC50) in experiment [1] lay in the range of 0.0001 to 10 µM; in experiment [2], 10 to 100 µM.

Turning to `CS(=O)(=O)CC(=O)N1[C@@H]2CC[C@H]1CN(c1nc(OCC34CCCN3CCC4)nc3c(F)c(-c4cc(O)cc5ccccc45)ccc13)C2` [P-0432, 1-((1R,5S)-3-(8-fluoro-7-(3-hydroxynaphthalen-1-yl)-2-((tetrahydro-1H-pyrrolizin-7a(5H)-yl)methoxy)quinazolin-4-yl)-3,8-diazabicyclo[3.2.1]octan-8-yl)-2-(methylsulfonyl)ethan-1-one], the IC50 in experiment [1] and in experiment [2] was 0.0001 to 10 µM in each case.

Consider `O=C(Cc1n[nH]c2ccccc12)N1[C@@H]2CC[C@H]1CN(c1nc(OCC34CCCN3CCC4)nc3c(F)c(-c4cc(O)cc5ccccc45)ccc13)C2` [P-0433, 1-((1R,5S)-3-(8-fluoro-7-(3-hydroxynaphthalen-1-yl)-2-((tetrahydro-1H-pyrrolizin-7a(5H)-yl)methoxy)quinazolin-4-yl)-3,8-diazabicyclo[3.2.1]octan-8-yl)-2-(1H-indazol-3-yl)ethan-1-one], for which the IC50 in experiment [1] and in experiment [2] was 0.0001 to 10 µM throughout.

Take `CN1CCN(CCCS(=O)(=O)N2[C@@H]3CC[C@H]2CN(c2nc(OC[C@@H]4CCCN4C)nc4c(F)c(-c5cc(O)cc6ccccc56)ccc24)C3)CC1` [P-0434, 4-(8-fluoro-4-((1R,5S)-8-((3-(4-methylpiperazin-1-yl)propyl)sulfonyl)-3,8-diazabicyclo[3.2.1]octan-3-yl)-2-(((S)-1-methylpyrrolidin-2-yl)methoxy)quinazolin-7-yl)naphthalen-2-ol]: the half-inhibitory concentration (IC50) in experiment [1] fell in the range of 0.0001 to 10 µM; in experiment [2] it was 10 to 100 µM.

For the compound `Cc1cccc2c1N(c1ccc3c(N4C[C@H]5CC[C@@H](C4)N5)nc(OC[C@@H]4CCCN4C)nc3c1F)CCC2` [P-0435, 4-((1R,5S)-3,8-diazabicyclo[3.2.1]octan-3-yl)-8-fluoro-7-(8-methyl-3,4-dihydroquinolin-1(2H)-yl)-2-(((S)-1-methylpyrrolidin-2-yl)methoxy)quinazoline], the IC50 in experiment [1] lay in the range of 0.0001 to 10 µM; in experiment [2], 10 to 100 µM.

As for `Cc1cccc2c1N(c1ncc3c(N4C[C@H]5CC[C@@H](C4)N5)nc(OC[C@@H]4CCCN4C)nc3c1F)CC(O)C2` (stereo partly drawn) [P-0436, 1-(4-((1R,5S)-3,8-diazabicyclo[3.2.1]octan-3-yl)-8-fluoro-2-(((S)-1-methylpyrrolidin-2-yl)methoxy)pyrido[4,3-d]pyrimidin-7-yl)-8-methyl-1,2,3,4-tetrahydroquinolin-3-ol], the half-inhibitory concentration (IC50) in experiment [1] is 0.0001 to 10 µM; in experiment [2], 100 to 1000 µM.

Regarding `Cc1cccc2c(Nc3ccc4c(N5C[C@H]6CC[C@@H](C5)N6)nc(OC[C@@H]5CCCN5C)nc4c3F)n[nH]c12` [P-0437, 4-((1R,5S)-3,8-diazabicyclo[3.2.1]octan-3-yl)-8-fluoro-N-(7-methyl-1H-indazol-3-yl)-2-(((S)-1-methylpyrrolidin-2-yl)methoxy)quinazolin-7-amine], the values for the IC50 in experiment [1] and in experiment [2] were 10 to 100 µM and 100 to 1000 µM, respectively.

With `CN1CCC[C@H]1COc1nc(N2C[C@H]3CC[C@@H](C2)N3)c2ccc(Nc3n[nH]c4c(F)cccc34)c(F)c2n1` [P-0438, 4-((1R,5S)-3,8-diazabicyclo[3.2.1]octan-3-yl)-8-fluoro-N-(7-fluoro-1H-indazol-3-yl)-2-(((S)-1-methylpyrrolidin-2-yl)methoxy)quinazolin-7-amine], the IC50 in experiment [1] and in experiment [2] was 10 to 100 µM throughout.
